Measurements from patent publication US20240024488A1, “COMPOUNDS AND USES THEREOF” (Foghorn Therapeutics Inc., priority 2020, published 2024).

Columns and labels:
[1] = target: T1, HiBit-BRM fusion protein (Homo sapiens, UniProt P51531); assay: HiBiT-BRM cell-based degradation assay (Nano-Glo HiBiT Lytic Detection, 24 h); details: HeLa cell line expressing HiBiT-BRM; for DC50: read-out: BRM HiBit Degradation IC50
T1 construct: expressed in transfected cells
Summary of the method: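 HeLa cells stably expressing HiBiT-BRM were dosed with compounds (10-point 3-fold dilutions, 30 μM final top dose, duplicate) for 24 h. HiBiT signal was read by lytic LgBiT complementation luminescence. Percent degradation was normalised to DMSO (high control) and 2 μM of a reference BRM/BRG1 degrader (low control).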

[2] = target: T2, HiBit-BRG1 fusion protein (Homo sapiens, UniProt P51532); assay: HiBiT-BRG1 cell-based degradation assay (Nano-Glo HiBiT Lytic Detection, 24 h); details: HeLa cell line expressing HiBit-BRG1 and LgBit; for Dmax: read-out: BRG1 HiBit Degradation Maximum (%); for DC50: read-out: BRMG1 HiBit Degradation IC50
T2 construct: expressed in transfected cells
T2 sequence (P51532 whole entry, the tested form may be a part): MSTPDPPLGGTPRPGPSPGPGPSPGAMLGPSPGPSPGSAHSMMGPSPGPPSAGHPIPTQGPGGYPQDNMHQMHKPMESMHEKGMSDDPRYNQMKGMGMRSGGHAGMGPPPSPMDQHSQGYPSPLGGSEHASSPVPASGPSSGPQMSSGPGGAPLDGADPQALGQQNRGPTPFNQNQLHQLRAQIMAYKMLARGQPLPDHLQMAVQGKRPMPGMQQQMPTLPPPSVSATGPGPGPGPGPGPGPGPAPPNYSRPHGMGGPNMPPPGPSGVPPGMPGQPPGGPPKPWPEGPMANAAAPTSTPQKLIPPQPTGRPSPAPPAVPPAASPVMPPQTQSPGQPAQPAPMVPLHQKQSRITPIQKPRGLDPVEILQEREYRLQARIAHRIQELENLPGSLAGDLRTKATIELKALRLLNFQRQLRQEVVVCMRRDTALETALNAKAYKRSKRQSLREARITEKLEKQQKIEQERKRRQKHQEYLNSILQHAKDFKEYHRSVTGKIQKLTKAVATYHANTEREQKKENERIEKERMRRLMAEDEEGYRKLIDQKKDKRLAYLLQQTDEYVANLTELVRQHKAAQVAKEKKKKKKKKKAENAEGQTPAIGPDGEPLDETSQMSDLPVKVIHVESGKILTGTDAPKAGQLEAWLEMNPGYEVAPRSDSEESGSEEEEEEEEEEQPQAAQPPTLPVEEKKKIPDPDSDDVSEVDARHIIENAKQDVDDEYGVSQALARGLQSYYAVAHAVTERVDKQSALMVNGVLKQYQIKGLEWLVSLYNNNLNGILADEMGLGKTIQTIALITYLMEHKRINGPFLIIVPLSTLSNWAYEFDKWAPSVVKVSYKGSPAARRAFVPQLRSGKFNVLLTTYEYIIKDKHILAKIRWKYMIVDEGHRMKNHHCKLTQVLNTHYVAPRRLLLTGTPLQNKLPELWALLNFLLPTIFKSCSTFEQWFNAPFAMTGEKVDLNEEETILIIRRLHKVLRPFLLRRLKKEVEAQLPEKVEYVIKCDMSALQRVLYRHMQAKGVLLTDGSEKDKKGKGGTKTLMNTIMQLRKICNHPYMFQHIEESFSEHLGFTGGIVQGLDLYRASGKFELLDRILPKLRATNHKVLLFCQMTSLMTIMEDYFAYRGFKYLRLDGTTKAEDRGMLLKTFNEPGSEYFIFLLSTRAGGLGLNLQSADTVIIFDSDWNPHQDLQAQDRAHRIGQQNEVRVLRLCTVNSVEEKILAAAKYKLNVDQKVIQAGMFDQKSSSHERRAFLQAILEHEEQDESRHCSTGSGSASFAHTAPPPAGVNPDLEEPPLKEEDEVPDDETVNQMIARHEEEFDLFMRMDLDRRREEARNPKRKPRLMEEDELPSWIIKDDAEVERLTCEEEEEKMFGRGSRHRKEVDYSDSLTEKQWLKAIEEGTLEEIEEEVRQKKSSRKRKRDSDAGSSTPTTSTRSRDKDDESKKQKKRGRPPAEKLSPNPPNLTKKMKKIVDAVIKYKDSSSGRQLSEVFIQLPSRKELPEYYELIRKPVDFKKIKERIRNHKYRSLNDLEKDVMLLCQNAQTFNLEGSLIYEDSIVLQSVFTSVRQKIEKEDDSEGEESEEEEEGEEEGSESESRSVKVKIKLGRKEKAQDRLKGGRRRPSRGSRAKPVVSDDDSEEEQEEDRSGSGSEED
Summary of the method: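 Percent degradation derived from lytic HiBiT signal, normalized to DMSO-treated cells and to cells given 2 μM of a known BRM/BRG1 degrader. The HeLa line stably expressed HiBit-BRG1 and LgBit; treatment lasted 24 h at 5000 cells per well.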

T1 sequence (P51531 whole entry, the tested form may be a part): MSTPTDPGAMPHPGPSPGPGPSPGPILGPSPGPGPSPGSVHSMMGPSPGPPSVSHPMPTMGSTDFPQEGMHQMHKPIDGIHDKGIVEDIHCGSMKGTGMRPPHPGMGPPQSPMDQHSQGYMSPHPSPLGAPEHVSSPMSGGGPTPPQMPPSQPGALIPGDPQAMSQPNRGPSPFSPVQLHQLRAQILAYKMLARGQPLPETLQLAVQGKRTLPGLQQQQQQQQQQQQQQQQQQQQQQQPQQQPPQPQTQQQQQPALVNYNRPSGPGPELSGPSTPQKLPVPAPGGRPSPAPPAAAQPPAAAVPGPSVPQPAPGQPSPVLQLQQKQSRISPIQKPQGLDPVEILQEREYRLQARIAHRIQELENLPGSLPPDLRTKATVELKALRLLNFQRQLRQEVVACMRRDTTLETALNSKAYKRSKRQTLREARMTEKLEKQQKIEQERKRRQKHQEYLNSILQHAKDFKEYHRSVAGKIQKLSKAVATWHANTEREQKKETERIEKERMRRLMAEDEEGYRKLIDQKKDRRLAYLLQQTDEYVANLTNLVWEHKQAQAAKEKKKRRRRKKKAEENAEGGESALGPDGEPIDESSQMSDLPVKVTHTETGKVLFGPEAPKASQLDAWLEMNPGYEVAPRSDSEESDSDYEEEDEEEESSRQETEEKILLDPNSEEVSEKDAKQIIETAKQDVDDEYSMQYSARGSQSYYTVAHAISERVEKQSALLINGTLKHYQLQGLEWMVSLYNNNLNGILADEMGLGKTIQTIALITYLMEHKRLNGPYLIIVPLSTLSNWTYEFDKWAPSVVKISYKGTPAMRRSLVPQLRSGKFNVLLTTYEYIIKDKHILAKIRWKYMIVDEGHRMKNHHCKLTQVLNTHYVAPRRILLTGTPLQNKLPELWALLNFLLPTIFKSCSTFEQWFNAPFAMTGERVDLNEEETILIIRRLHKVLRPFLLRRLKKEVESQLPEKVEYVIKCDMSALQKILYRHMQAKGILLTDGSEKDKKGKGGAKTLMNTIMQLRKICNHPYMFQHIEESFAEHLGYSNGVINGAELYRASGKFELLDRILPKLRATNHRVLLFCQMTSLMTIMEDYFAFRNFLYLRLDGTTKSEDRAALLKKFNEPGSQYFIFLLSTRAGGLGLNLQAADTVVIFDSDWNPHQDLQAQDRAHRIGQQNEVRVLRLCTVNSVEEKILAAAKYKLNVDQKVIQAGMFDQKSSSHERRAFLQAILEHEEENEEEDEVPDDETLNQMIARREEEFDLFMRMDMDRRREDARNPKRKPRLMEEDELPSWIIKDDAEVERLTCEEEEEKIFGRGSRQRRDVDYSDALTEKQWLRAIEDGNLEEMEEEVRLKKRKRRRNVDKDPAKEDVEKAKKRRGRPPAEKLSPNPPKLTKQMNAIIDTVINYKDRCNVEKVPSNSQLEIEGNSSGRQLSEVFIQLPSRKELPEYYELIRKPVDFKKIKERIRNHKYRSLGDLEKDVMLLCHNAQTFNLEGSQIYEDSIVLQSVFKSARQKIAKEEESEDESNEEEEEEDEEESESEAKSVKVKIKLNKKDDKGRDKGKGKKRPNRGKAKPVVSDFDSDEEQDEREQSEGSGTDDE

Row | SMILES | DC50 [1] | Dmax [2] | DC50 [2] | BRM HiBit Degradation Maximum (%) [1]
1 | Cc1ncsc1-c1ccc([C@H](C)NC(=O)[C@@H]2C[C@@H](O)CN2C(=O)[C@@H](c2cc(C3CCN(C(=O)CN4CC(c5cc6cc(-c7ccccc7O)nnc6[nH]5)C4)CC3)no2)C(C)C)cc1 (single isomer, unassigned) [Compound 179] | > 100 nM | < 50% |  | A (“A” indicates maximum degradation ≥ 75%)
2 | Cc1ncsc1-c1ccc(CNC(=O)[C@@H]2C[C@@H](O)CN2C(=O)[C@@H](NC(=O)CCCC(=O)N[C@H]2CCc3[nH]c4nnc(-c5ccccc5O)cc4c3C2)C(C)(C)C)cc1 (single isomer, unassigned) [Compound 184] | > 1000 nM | < 50% |  | B (“B” indicates maximum degradation ≥ 50%)
3 | Cc1ncsc1-c1ccc([C@H](C)NC(=O)[C@@H]2C[C@@H](O)CN2C(=O)[C@@H](c2cc(N3CCN(C(=O)[C@H]4CCc5[nH]c6nnc(-c7ccccc7O)cc6c5C4)CC3)no2)C(C)C)cc1 (single isomer, unassigned) [Compound 188] | > 100 nM | > 75% | > 100 nM | A (“A” indicates maximum degradation ≥ 75%)
4 | Cc1ncsc1-c1ccc(CNC(=O)[C@@H]2C[C@@H](O)CN2C(=O)[C@@H](NC(=O)CCCNC(=O)[C@H]2CCc3[nH]c4nnc(-c5ccccc5O)cc4c3C2)C(C)(C)C)cc1 (single isomer, unassigned) [Compound 190] |  | < 50% |  | C (“C” indicates maximum degradation < 50%)
5 | Cc1ncsc1-c1ccc(CNC(=O)[C@@H]2C[C@@H](O)CN2C(=O)[C@@H](NC(=O)CNC(=O)[C@H]2CCc3[nH]c4nnc(-c5ccccc5O)cc4c3C2)C(C)(C)C)cc1 (single isomer, unassigned) [Compound 191] |  | < 50% |  | C (“C” indicates maximum degradation < 50%)
6 | Cc1ncsc1-c1ccc([C@H](C)NC(=O)[C@@H]2C[C@@H](O)CN2C(=O)[C@@H](c2cc(N3CCN(C(=O)[C@@H]4CCc5[nH]c6nnc(-c7ccccc7O)cc6c5C4)CC3)no2)C(C)C)cc1 (single isomer, unassigned) [Compound 192] | > 10 nM | < 50% |  | A (“A” indicates maximum degradation ≥ 75%)
7 | Cc1ncsc1-c1ccc(CNC(=O)[C@@H]2C[C@@H](O)CN2C(=O)[C@@H](NC(=O)CCCNC(=O)[C@@H]2CCc3[nH]c4nnc(-c5ccccc5O)cc4c3C2)C(C)(C)C)cc1 (single isomer, unassigned) [Compound 196] | > 100 nM | < 50% |  | B (“B” indicates maximum degradation ≥ 50%)
8 | Cc1ncsc1-c1ccc(CNC(=O)[C@@H]2C[C@@H](O)CN2C(=O)[C@@H](NC(=O)CNC(=O)[C@@H]2CCc3[nH]c4nnc(-c5ccccc5O)cc4c3C2)C(C)(C)C)cc1 (single isomer, unassigned) [Compound 197] |  | < 50% |  | C (“C” indicates maximum degradation < 50%)
9 | Cc1ncsc1-c1ccc([C@H](C)NC(=O)[C@@H]2C[C@@H](O)CN2C(=O)[C@@H](c2cc(OCCN3CC(CCc4[nH]c5nnc(-c6ccccc6O)cc5c4C)C3)no2)C(C)C)cc1 (single isomer, unassigned) [Compound 198] | > 100 nM | > 75% | > 100 nM | A (“A” indicates maximum degradation ≥ 75%)
10 | Cc1ncsc1-c1ccc([C@H](C)NC(=O)[C@@H]2C[C@@H](O)CN2C(=O)[C@@H](c2cc(OCCN[C@H]3CCc4[nH]c5nnc(-c6ccccc6O)cc5c4C3)no2)C(C)C)cc1 (single isomer, unassigned) [Compound 200] | > 10 nM | < 50% |  | A (“A” indicates maximum degradation ≥ 75%)

The next lines start with results.

Row | DC50 [1] | Dmax [2] | DC50 [2] | SMILES | BRM HiBit Degradation Maximum (%) [1]
11 |  | < 50% |  | Cc1ncsc1-c1ccc([C@H](C)NC(=O)[C@@H]2C[C@@H](O)CN2C(=O)[C@H](c2cc(C3CCN(C(=O)c4cc5cc(-c6ccccc6O)nnc5[nH]4)CC3)no2)C(C)C)cc1 (single isomer, unassigned) [Compound 201] | C (“C” indicates maximum degradation < 50%)
12 |  | < 50% |  | Cc1ncsc1-c1ccc([C@H](C)NC(=O)[C@@H]2C[C@@H](O)CN2C(=O)[C@H](c2cc(CCCN3CC(c4cc5cc(-c6ccccc6O)nnc5[nH]4)C3)no2)C(C)C)cc1 (single isomer, unassigned) [Compound 202] | C (“C” indicates maximum degradation < 50%)
13 | > 100 nM | < 50% |  | Cc1ncsc1-c1ccc([C@H](C)NC(=O)[C@@H]2C[C@@H](O)CN2C(=O)[C@@H](c2cc(C3CCN(C(=O)c4cc5cc(-c6ccccc6O)nnc5[nH]4)CC3)no2)C(C)C)cc1 (single isomer, unassigned) [Compound 203] | A (“A” indicates maximum degradation ≥ 75%)
14 | > 100 nM | < 50% |  | Cc1ncsc1-c1ccc([C@H](C)NC(=O)[C@@H]2C[C@@H](O)CN2C(=O)[C@@H](c2cc(CCCN3CC(c4cc5cc(-c6ccccc6O)nnc5[nH]4)C3)no2)C(C)C)cc1 (single isomer, unassigned) [Compound 204] | A (“A” indicates maximum degradation ≥ 75%)
15 |  | < 50% |  | Cc1ncsc1-c1ccc(CNC(=O)[C@@H]2C[C@@H](O)CN2C(=O)[C@H](c2cc(OCCN3CC(c4cc5cc(-c6ccccc6O)nnc5[nH]4)C3)no2)C(C)C)cc1 (single isomer, unassigned) [Compound 207] | C (“C” indicates maximum degradation < 50%)
16 | > 10 nM | < 50% |  | Cc1ncsc1-c1ccc(CNC(=O)[C@@H]2C[C@@H](O)CN2C(=O)[C@@H](c2cc(OCCN3CC(c4cc5cc(-c6ccccc6O)nnc5[nH]4)C3)no2)C(C)C)cc1 (single isomer, unassigned) [Compound 209] | A (“A” indicates maximum degradation ≥ 75%)
17 |  | < 50% |  | Cc1ncsc1-c1ccc([C@H](C)NC(=O)[C@@H]2C[C@@H](O)CN2C(=O)[C@H](c2cc(OCCN3CC(c4cc5cc(-c6ccccc6O)nnc5[nH]4)C3)no2)C(C)C)cn1 (single isomer, unassigned) [Compound 218] | C (“C” indicates maximum degradation < 50%)
18 | > 100 nM | < 50% |  | Cc1ncsc1-c1ccc([C@H](C)NC(=O)[C@@H]2C[C@@H](O)CN2C(=O)[C@@H](c2cc(OCCN3CC(c4cc5cc(-c6ccccc6O)nnc5[nH]4)C3)no2)C(C)C)cn1 (single isomer, unassigned) [Compound 219] | A (“A” indicates maximum degradation ≥ 75%)
19 |  | < 50% |  | Cc1ncsc1-c1ccc([C@H](C)NC(=O)[C@@H]2C[C@@H](O)CN2C(=O)[C@@H](c2cc(OCCN3CCC[C@H]3c3c[nH]c4nnc(-c5ccccc5O)cc34)no2)C(C)C)cc1 (single isomer, unassigned) [Compound 227] | C (“C” indicates maximum degradation < 50%)
20 |  | < 50% |  | Cc1ncsc1-c1ccc([C@H](C)NC(=O)[C@@H]2C[C@@H](O)CN2C(=O)[C@@H](c2cc(OCCN3CCC[C@@H]3c3c[nH]c4nnc(-c5ccccc5O)cc34)no2)C(C)C)cc1 (single isomer, unassigned) [Compound 228] | C (“C” indicates maximum degradation < 50%)
21 | > 1000 nM | < 50% |  | Cc1ncsc1-c1ccc([C@H](C)NC(=O)[C@@H]2C[C@@H](O)CN2C(=O)[C@@H](c2cc(OCCN3CC[C@@H](c4c(C)[nH]c5nnc(-c6ccccc6O)cc45)C3)no2)C(C)C)cc1 (single isomer, unassigned) [Compound 232] | C (“C” indicates maximum degradation < 50%)
22 | > 10 nM | > 75% | > 10 nM | Cc1ncsc1-c1ccc([C@H](C)NC(=O)[C@@H]2C[C@@H](O)CN2C(=O)[C@@H](c2cc(N3CCN(CC45CC(c6cc7cc(-c8ccccc8O)nnc7[nH]6)(C4)C5)CC3)no2)C(C)C)cc1 (single isomer, unassigned) [Compound 233] | A (“A” indicates maximum degradation ≥ 75%)
23 | > 100 nM | < 50% |  | Cc1ncsc1-c1ccc([C@H](C)NC(=O)[C@@H]2C[C@@H](O)CN2C(=O)[C@@H](c2cc(N3CCN(C(=O)C(=O)N4CC(c5cc6cc(-c7ccccc7O)nnc6[nH]5)C4)CC3)no2)C(C)C)cc1 (single isomer, unassigned) [Compound 234] | A (“A” indicates maximum degradation ≥ 75%)
24 |  | < 50% |  | Cc1ncsc1-c1ccc([C@H](C)NC(=O)[C@@H]2C[C@@H](O)CN2C(=O)[C@@H](c2cc(OCCCN3CC(c4cc5cc(-c6ccccc6O)nnc5[nH]4)C3)no2)C(C)C)cc1 (single isomer, unassigned) [Compound 237] | C (“C” indicates maximum degradation < 50%)
25 | > 10 nM | < 50% |  | Cc1ncsc1-c1ccc([C@H](C)NC(=O)[C@@H]2C[C@@H](O)CN2C(=O)[C@@H](c2cc(OCCN3CC[C@H](c4c(C)[nH]c5nnc(-c6ccccc6O)cc45)C3)no2)C(C)C)cc1 (single isomer, unassigned) [Compound 241] | B (“B” indicates maximum degradation ≥ 50%)
